The record followed here is patent US20250171438A1 (Agios Pharmaceuticals, Inc., priority 2022, published 2025).

Where two headings read alike, the source gives them in different places. A value given as a limit tells only on which side of the number the result lay.

This experiment has as its target T1, human PAH with the R408W mutation (Homo sapiens, UniProt P00439, R408W).
T1 construct: expressed in transfected cells
T1 sequence (P00439 1-452 R408W): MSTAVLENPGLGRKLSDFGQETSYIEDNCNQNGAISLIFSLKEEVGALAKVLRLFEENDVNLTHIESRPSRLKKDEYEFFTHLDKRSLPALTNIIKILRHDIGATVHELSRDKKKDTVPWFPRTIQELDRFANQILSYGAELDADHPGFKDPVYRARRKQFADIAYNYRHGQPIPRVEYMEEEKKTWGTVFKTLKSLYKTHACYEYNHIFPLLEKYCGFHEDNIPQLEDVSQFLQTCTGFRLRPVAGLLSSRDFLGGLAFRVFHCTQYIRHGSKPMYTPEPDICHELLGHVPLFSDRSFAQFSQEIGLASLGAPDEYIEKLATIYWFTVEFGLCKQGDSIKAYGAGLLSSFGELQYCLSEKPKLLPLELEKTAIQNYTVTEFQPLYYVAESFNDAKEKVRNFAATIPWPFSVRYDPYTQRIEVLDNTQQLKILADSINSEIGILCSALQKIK
Description: Cell Based Phenylalanine Flux Assay. The note with it: A375 cells expressing human R408W PAH, 13C-Tyrosine by LC-MS, average where tested multiple times, read-out: AC50.

A word on the AC50: it is the concentration at which the activity in the assay is half-maximal. `Cn1nc(C(C)(C)C#N)nc1C(=O)N1CCc2[nH]cnc2[C@H]1c1nc2ccccc2s1` [Example 2045, (S)-2-(5-(4-(benzo[d]thiazol-2-yl)-4,5,6,7-tetrahydro-1H-imidazo[4,5-c]pyridine-5-carbonyl)-1-methyl-1H-1,2,4-triazol-3-yl)-2-methylpropanenitrile]: the AC50 (24 hrs compound incubation) lay in the range of 1000 to 5000 nM.

For `CC(C)(O)c1nc(C(F)F)c(C(=O)N2CCc3[nH]cnc3[C@H]2c2nc3c(F)cccc3s2)o1` [Example 1773, (S)-(4-(difluoromethyl)-2-(2-hydroxypropan-2-yl)oxazol-5-yl)(4-(4-fluorobenzo[d]thiazol-2-yl)-6,7-dihydro-1H-imidazo[4,5-c]pyridin-5(4H)-yl)methanone], the AC50 (24 hrs compound incubation) is < 500 nM.

As to `O=C(c1nc(Cl)cs1)N1CCc2[nH]cnc2[C@H]1c1nc2ccc(Cl)cc2[nH]1` [Example 955, (S)-(4-(6-chloro-1H-benzo[d]imidazol-2-yl)-6,7-dihydro-1H-imidazo[4,5-c]pyridin-5(4H)-yl)(4-chlorothiazol-2-yl)methanone], the AC50 (24 hrs compound incubation) fell in the range of 500 to 1000 nM.

On to `O=C(c1cnc(-c2ccnc(C(F)(F)F)c2)s1)N1CCc2[nH]cnc2[C@H]1c1nc2ccccc2s1` [Example 1403], for which, where the note is “24 hrs compound incubation”, the AC50 is 500 to 1000 nM.

Consider `O=C(c1ccnn1-c1ccccc1)N1CCc2[nH]cnc2[C@H]1c1nc2c(F)cccc2s1` [Example 1605], for which the AC50 (24 hrs compound incubation) lay in the range of 500 to 1000 nM.

In the case of `O=C(c1ncn2ccccc12)N1CCc2[nH]cnc2[C@H]1c1nc2ccccc2s1` [Example 1027], the AC50 (24 hrs compound incubation) fell in the range of 500 to 1000 nM.

Turning to `O=C(c1ccc2ncsc2c1)N1CCc2[nH]cnc2C1c1nc2ccccc2[nH]1` (stereo not shown), for the setting “24 hrs with compound”, the AC50 was > 5000 nM.

For the compound `O=C(c1nc2ccccc2o1)N1CCc2[nH]cnc2[C@H]1c1nc2ccccc2[nH]1` [Example 999, (S)-(4-(1H-benzo[d]imidazol-2-yl)-6,7-dihydro-1H-imidazo[4,5-c]pyridin-5(4H)-yl)(benzo[d]oxazol-2-yl)methanone], where the note is “24 hrs compound incubation”, the AC50 fell in the range of 1000 to 5000 nM.

Regarding `CC(C)(C)c1ncc(C(=O)N2CCc3[nH]cnc3[C@H]2c2nc3c(F)cccc3s2)s1` [Example 1425], the AC50 (24 hrs compound incubation) is < 500 nM.

For the compound `CC(C)(O)c1noc(C(=O)N2CCc3[nH]cnc3C2c2nc3c(F)cccc3s2)n1` (stereo not shown), the AC50 (24 hrs with compound) is > 5000 nM.

Take `O=C(c1cnco1)N1CCc2[nH]cnc2C1c1nc2ccc(F)cc2s1` (stereo not shown): the AC50 (24 hrs with compound) was > 5000 nM.

For the compound `O=C(c1oc(-c2ccccn2)nc1C(F)(F)F)N1CCCc2[nH]cnc2[C@@H]1c1nc2ccccc2s1` [Example 2122, (R)-(4-(benzo[d]thiazol-2-yl)-7,8-dihydroimidazo[4,5-c]azepin-5(1H,4H,6H)-yl)(2-(pyridin-2-yl)-4-(trifluoromethyl)oxazol-5-yl)methanone], where the note is “24 hrs compound incubation”, the AC50 was 1000 to 5000 nM.

Regarding `O=C(c1ncc(-c2ccccc2)s1)N1CCc2[nH]cnc2[C@@H]1c1nc2ccccc2s1` [Example 1190, (R)-(4-(benzo[d]thiazol-2-yl)-6,7-dihydro-1H-imidazo[4,5-c]pyridin-5(4H)-yl)(5-phenylthiazol-2-yl)methanone], the AC50 (24 hrs compound incubation) was > 5000 nM.

As to `O=C(c1cnn2cc(F)ccc12)N1CCc2[nH]cnc2[C@@H]1c1nc2cc(F)ccc2s1` [Example 1334, (R)-(4-(5-fluorobenzo[d]thiazol-2-yl)-6,7-dihydro-1H-imidazo[4,5-c]pyridin-5(4H)-yl)(6-fluoropyrazolo[1,5-a]pyridin-3-yl)methanone], where the note is “24 hrs compound incubation”, the AC50 is > 5000 nM.

For the compound `Cc1nn(C)cc1-c1ncc(C(=O)N2CCc3[nH]cnc3[C@@H]2c2nc3ccccc3s2)o1` [Example 1382, (R)-(4-(benzo[d]thiazol-2-yl)-6,7-dihydro-1H-imidazo[4,5-c]pyridin-5(4H)-yl)(2-(1,3-dimethyl-1H-pyrazol-4-yl)oxazol-5-yl)methanone], the AC50 (24 hrs compound incubation) is 1000 to 5000 nM.

On to `O=C(CCC1CC1)N1CCc2[nH]cnc2[C@H]1c1nc2ccc(Br)cc2s1` [Example 1145, (S)-1-(4-(6-bromobenzo[d]thiazol-2-yl)-6,7-dihydro-1H-imidazo[4,5-c]pyridin-5(4H)-yl)-3-cyclopropylpropan-1-one], for which the AC50 (24 hrs compound incubation) is < 500 nM.

Turning to `O=C(c1cnn2ccccc12)N1CCc2[nH]cnc2[C@@H]1c1nc2ccccc2[nH]1` [Example 922, (R)-(4-(1H-benzo[d]imidazol-2-yl)-6,7-dihydro-1H-imidazo[4,5-c]pyridin-5(4H)-yl)(pyrazolo[1,5-a]pyridin-3-yl)methanone], the AC50 (24 hrs compound incubation) was > 5000 nM.

On to `Cc1ncoc1C(=O)N1CC(C)(C)c2[nH]cnc2C1c1nc2ccccc2s1` (stereo not shown), for which the AC50 (24 hrs with compound) is > 5000 nM.

For `O=C(c1cnn2ccccc12)N1CCc2[nH]cnc2[C@H]1c1nc2ccc(F)cc2s1` [Example 1099, (S)-(4-(6-fluorobenzo[d]thiazol-2-yl)-6,7-dihydro-1H-imidazo[4,5-c]pyridin-5(4H)-yl)(pyrazolo[1,5-a]pyridin-3-yl)methanone], the AC50 (24 hrs compound incubation) was in the range of 1000 to 5000 nM.

For the compound `O=C(c1cnn(-c2ccc(F)cc2)c1)N1CCc2[nH]cnc2[C@H]1c1nc2ccccc2s1` [Example 1411], the AC50 (24 hrs compound incubation) was < 500 nM.

`COc1ccn2ncc(C(=O)N3CCc4[nH]cnc4[C@@H]3c3nc4c(F)cccc4s3)c2c1` [Example 1198, (R)-(4-(4-fluorobenzo[d]thiazol-2-yl)-6,7-dihydro-1H-imidazo[4,5-c]pyridin-5(4H)-yl)(5-methoxypyrazolo[1,5-a]pyridin-3-yl)methanone]: the AC50 (24 hrs compound incubation) is 1000 to 5000 nM.

In the case of `O=C(CC1CC1)N1CCc2[nH]cnc2[C@H]1c1nc2cccc(F)c2s1` [Example 1257, (S)-2-cyclopropyl-1-(4-(7-fluorobenzo[d]thiazol-2-yl)-6,7-dihydro-1H-imidazo[4,5-c]pyridin-5(4H)-yl)ethanone], the AC50 (24 hrs compound incubation) was < 500 nM.

In the case of `O=C(Cc1nccs1)N1CCc2[nH]cnc2[C@@H]1c1nc2ccc(Br)cc2[nH]1` (single isomer, unassigned), the AC50 (24 hrs with compound) was > 5000 nM.

For the compound `O=C(c1nnc(-c2ccccc2)o1)N1CCc2[nH]cnc2[C@H]1c1nc2ccccc2s1` [Example 1417], the half-maximal activity concentration (AC50) (24 hrs compound incubation) is < 500 nM.

For `O=C(c1cnn(C(F)F)c1)N1CCc2[nH]cnc2[C@@H]1c1nc2ccccc2s1` [Example 1410, (R)-(4-(benzo[d]thiazol-2-yl)-6,7-dihydro-1H-imidazo[4,5-c]pyridin-5(4H)-yl)(1-(difluoromethyl)-1H-pyrazol-4-yl)methanone], the AC50 (24 hrs compound incubation) was > 5000 nM.

In the case of `CN1CCN(c2nc(C(F)(F)F)c(C(=O)N3CCc4[nH]cnc4[C@@H]3c3nc4ccccc4s3)o2)CC1` [Example 1574, (R)-(4-(benzo[d]thiazol-2-yl)-6,7-dihydro-1H-imidazo[4,5-c]pyridin-5(4H)-yl)(2-(4-methylpiperazin-1-yl)-4-(trifluoromethyl)oxazol-5-yl)methanone], the AC50 (24 hrs compound incubation) is < 500 nM.

On to `O=C(c1cnn2cc(Cc3ccccc3)ccc12)N1CCc2[nH]cnc2C1c1nc2ccccc2s1` (stereo not shown), for which the AC50 (24 hrs with compound) was in the range of 1000 to 5000 nM.

In the case of `Cn1ncc(-c2ncc(C(=O)N3CCc4[nH]cnc4[C@@H]3c3nc4ccccc4s3)s2)c1C(F)(F)F` [Example 1408, (R)-(4-(benzo[d]thiazol-2-yl)-6,7-dihydro-1H-imidazo[4,5-c]pyridin-5(4H)-yl)(2-(1-methyl-5-(trifluoromethyl)-1H-pyrazol-4-yl)thiazol-5-yl)methanone], for the setting “24 hrs compound incubation”, the AC50 was in the range of 1000 to 5000 nM.

On to `O=C(c1cnco1)N1CCc2[nH]cnc2[C@H]1c1nc2c(F)cccc2s1` [Example 1223, (S)-(4-(4-fluorobenzo[d]thiazol-2-yl)-6,7-dihydro-1H-imidazo[4,5-c]pyridin-5(4H)-yl)(oxazol-5-yl)methanone], for which the AC50 (24 hrs compound incubation) lay in the range of 500 to 1000 nM.

Consider `CC(C)(O)c1ncc(C(=O)N2CC3(CC3)c3[nH]cnc3[C@H]2c2nc3ccccc3s2)o1` [Example 1677, (S)-(4′-(benzo[d]thiazol-2-yl)spiro[cyclopropane-1,7′-imidazo[4,5-c]pyridin]-5′(1′H,4′H,6′H)-yl)(2-(2-hydroxypropan-2-yl)oxazol-5-yl)methanone], for which the AC50 (24 hrs compound incubation) lay within 500 to 1000 nM.

`O=C(c1cnc(-c2ccccc2)o1)N1CCc2[nH]cnc2[C@@H]1c1nc2ccccc2s1` [Example 1208, (R)-(4-(benzo[d]thiazol-2-yl)-6,7-dihydro-1H-imidazo[4,5-c]pyridin-5(4H)-yl)(2-phenyloxazol-5-yl)methanone]: the AC50 (24 hrs compound incubation) was in the range of 1000 to 5000 nM.

As to `Cc1nn(C)c(Cl)c1C(=O)N1CCc2[nH]cnc2[C@H]1c1nc2c(F)cccc2s1` [Example 1742], the AC50 (24 hrs compound incubation) is < 500 nM.

`Cc1cccc2nc([C@H]3c4nc[nH]c4CCN3C(=O)c3cncs3)sc12` [Example 1315, (R)-(4-(7-methylbenzo[d]thiazol-2-yl)-6,7-dihydro-1H-imidazo[4,5-c]pyridin-5(4H)-yl)(thiazol-5-yl)methanone]: the AC50 (24 hrs compound incubation) lay in the range of 1000 to 5000 nM.

Consider `Cc1cccc2sc([C@@H]3c4nc[nH]c4CCN3C(=O)c3ocnc3C(F)(F)F)nc12` [Example 2009, (S)-(4-(4-methylbenzo[d]thiazol-2-yl)-6,7-dihydro-1H-imidazo[4,5-c]pyridin-5(4H)-yl)(4-(trifluoromethyl)oxazol-5-yl)methanone], for which the AC50 (24 hrs compound incubation) was < 500 nM.

As to `COc1ccn2ncc(C(=O)N3CCc4[nH]cnc4C3c3nc4ccc(Cl)cc4[nH]3)c2c1` (stereo not shown), the AC50 (24 hrs with compound) was in the range of 1000 to 5000 nM.

With `O=C(c1cc2cccnn2c1)N1CCc2[nH]cnc2[C@H]1c1nc2ccccc2s1` [Example 1127], the AC50 (24 hrs compound incubation) fell in the range of 500 to 1000 nM.

Consider `Cc1nnc(C(=O)N2CCc3[nH]cnc3C2c2nc3ccc(F)cc3s2)s1` (stereo not shown), for which, for the setting “24 hrs with compound”, the AC50 is > 5000 nM.
